Reference: US9822099B2, “Triazole derivatives” (priority 2013, dated 2017)
Read-outs that look alike come from different tables or passages of the source. Marks after values point to notes of the source that are not given here.

Columns and labels:
Septoria tritici = test: Example D: in vivo preventive test on Septoria tritici (leaf spot on wheat); details: wheat plants, preventive spray, evaluated 24 days after inoculation
Experimental: (§1) The young plants of wheat are treated by spraying the active ingredient prepared as described above. Control plants are treated only with an aqueous solution of acetone/Dimethyl sulfoxide/Tween®. After 24 hours, the plants are contaminated by spraying the leaves with an aqueous suspension of Septoria tritici spores.

Sphaerotheca fuliginea = test: Example E: in vivo preventive test on Sphaerotheca fuliginea (powdery mildew on cucurbits); details: gherkin plants, preventive spray, evaluated 15 days after inoculation
Experimental: as §1, with “gherkin” for “wheat”, “Sphaerotheca fuliginea” for “Septoria tritici”

Uromyces appendiculatus = test: Example F: in vivo preventive test on Uromyces appendiculatus (bean rust); details: 100 ppm of active ingredient; bean plants, preventive spray; evaluated 11 days after inoculation
Experimental: as §1, with “bean” for “wheat”, “Uromyces appendiculatus” for “Septoria tritici”

[1] = method [a]: LC-MS at pH 2.7, 0.1% formic acid in water / acetonitrile gradient
[2] = method [b]: LC-MS at pH 7.8, 0.001 molar ammonium hydrogen carbonate in water / acetonitrile gradient

LogP (pH 2.7)	Compound	LogP [1]	also measured
	Clc1ccc(CC2(C3(Cl)CC3)CO2)c(Cl)n1 (centres unmarked) [XII-30]	3.71^[a]	
	CC(CF)(CF)C1(Cc2ccncc2F)CO1 (centres unmarked) [XII-8]	1.79^[a]	
	Fc1cnccc1CC1(C2(Cl)CC2)CO1 (centres unmarked) [XII-6]	2.13^[a]	
	CC(CF)(CF)C1(Cc2c(Cl)cncc2Cl)CO1 (centres unmarked) [XII-33]	2.89^[a]	
	FC1(C2(Cc3ccncc3Cl)CO2)CC1 (centres unmarked) [XII-19]	2.06^[a]	
2.27^[a]	OC(Cc1cccc(Cl)c1)(Cc1ccncc1Cl)Cn1cncn1 (centres unmarked) [Example I-15]		Eff. % (Septoria tritici; 100 ppm of active ingredient): 94%; Eff. % (Sphaerotheca fuliginea; 100 ppm of active ingredient): 98%
	O=C(Cc1ncccc1Cl)C1(Cl)CC1 [Example V-2]	2.40^[a]	
1.26^[a]	OC(Cc1ccncc1Cl)(Cn1cncn1)c1ccc(Cl)nc1 (centres unmarked) [Example I-13]		Eff. % (Sphaerotheca fuliginea; 100 ppm of active ingredient): 94%; Eff. % (Uromyces appendiculatus): 95%
	Clc1ncccc1CC1(C2(Cl)CC2)CO1 (centres unmarked) [XII-5]	2.69^[a]	
	Cc1cccc2cc(CC(=O)C3(Cl)CC3)c(Cl)nc12 [Example V-18]	4.14^[a]	
1.28^[a]	CC1(C(O)(Cc2ccnnc2Cl)Cn2cncn2)CC1 (centres unmarked) [Example I-93]		
1.13^[a]	OC(Cc1cnccn1)(Cn1cncn1)C1(Cl)CC1 (centres unmarked) [Example I-11]		Eff. % (Sphaerotheca fuliginea; 100 ppm of active ingredient): 79%; Eff. % (Uromyces appendiculatus): 75%
2.69^[a]	OC(Cc1cc(Cl)nc2ccccc12)(Cn1cncn1)C1(Cl)CC1 (centres unmarked) [Example I-92]		
2.42^[a]	OC(Cc1cccc(Cl)c1)(Cc1ccnc(Cl)c1)Cn1cncn1 (centres unmarked) [Example I-37]		
	Clc1cc(CC2(C3(Cl)CC3)CO2)ccn1 (centres unmarked) [XII-11]	2.80^[a]	
	O=C(Cc1ccc2ccccc2n1)C1(Cl)CC1 [Example V-1]	3.39^[a]	
	CC1(C(=O)Cc2ccncc2Cl)CCCCC1 [Example V-12]	3.23^[a]	
1.73^[a]	OC(Cc1ccccc1F)(Cc1ccnc(Cl)c1F)Cn1cncn1 (racemic) [Example I-85]		Eff. % (Septoria tritici; 500 ppm of active ingredient): 78%; Eff. % (Sphaerotheca fuliginea; 500 ppm of active ingredient): 89%
	O=C(Cc1ccc(Cl)nc1)C1(Cl)CC1 [Example V-6]	2.34^[a]	LogP [2]: 2.30^[b];
2.00^[a]	OC(Cc1cccc(Cl)c1)(Cc1ccncc1F)Cn1cncn1 (centres unmarked) [Example I-22]		Eff. % (Septoria tritici; 100 ppm of active ingredient): 88%
	Clc1cnccc1CC1(C2(Cl)CCCC2)CO1 (centres unmarked) [XII-16]	3.42^[a]	

LogP (pH 2.7)	Compound	LogP [1]	also measured
2.06^[a]	OC(Cc1ccnc(Cl)c1)(Cc1ccccc1F)Cn1cncn1 (centres unmarked) [Example I-35]		Eff. % (Sphaerotheca fuliginea; 100 ppm of active ingredient): 78%
	O=C(Cc1c(Cl)ccnc1Cl)C1(Cl)CC1 [Example V-20]	2.96^[a]	
	FC1(C2(Cc3c(Cl)cncc3Cl)CO2)CC1 (centres unmarked) [XII-34]	2.93^[a]	
	O=C(Cc1cc(Cl)cnc1Cl)C1(Cl)CC1 [Example V-21]	3.12^[a]	
2.75^[a]	C[Si](C)(C)OC(Cc1cnccn1)(Cn1cncn1)C1(Cl)CC1 (centres unmarked) [Example I-28]		
	Clc1cnccc1CC1(C2(Cl)CCCCC2)CO1 (centres unmarked) [XII-17]	3.80^[a]	
	Clc1ccnc(Cl)c1CC1(C2(Cl)CC2)CO1 (centres unmarked) [XII-40]	3.53^[a]	
	CC(CF)(CF)C1(Cc2ccnc(Cl)c2)CO1 (centres unmarked) [XII-10]	2.38^[a]	
	Fc1ncccc1CC1(C2(Cl)CC2)CO1 (centres unmarked) [XII-31]	2.47^[a]	
	Clc1cc(CC2(C3(Cl)CC3)CO2)cc(Cl)n1 (centres unmarked) [XII-24]	3.80^[a]	
2.02^[a]	OC(Cc1cc(Cl)ccn1)(Cn1cncn1)C1(Cl)CC1 (centres unmarked) [Example I-47]		
	Fc1cnccc1CC1(C2(F)CC2)CO1 (centres unmarked) [XII-7]	1.63^[a]	
	O=C(Cc1cnc2ccccc2c1)C1(Cl)CC1 [Example V-13]	1.60^[a]	
	CC(CF)(CF)C1(Cc2cc(Cl)ncc2F)CO1 (centres unmarked) [XII-12]	2.69^[a]	
	O=C(Cc1ccncc1Cl)C1(F)CC1 [Example V-7]	1.76^[a]	
	Clc1ccc(CC2(C3(Cl)CC3)CO2)cn1 (centres unmarked) [XII-2]	2.84	LogP [2]: 2.83
1.60^[a]	OC(Cc1cc(Cl)ncc1F)(Cn1cncn1)c1ccc(Cl)nc1 (centres unmarked) [Example I-42]		Eff. % (Sphaerotheca fuliginea; 100 ppm of active ingredient): 98%
	FC1(C2(Cc3ccnc(Cl)c3)CO2)CC1 (centres unmarked) [XII-9]	2.27^[a]	
1.89^[a]	OC(Cc1c(Cl)cncc1Cl)(Cn1cncn1)c1ccc(Cl)nc1 (racemic) [Example I-63]		
	O=C(Cc1cc(Cl)nc(Cl)c1)C1(Cl)CC1 [Example V-5]	3.25^[a]	
	Clc1cccnc1CC1(C2(Cl)CC2)CO1 (centres unmarked) [XII-4]	2.69^[a]	

LogP (pH 2.7)	Compound	LogP [1]	also measured
2.73^[a]	OC(Cc1nc(Cl)ccc1Cl)(Cn1cncn1)C1(Cl)CC1 (centres unmarked) [Example I-96]		
	CC(C)(Cl)C1(Cc2ccncc2Cl)CO1 (centres unmarked) [XII-15]	2.57^[a]	
1.63^[a]	OC(Cc1ccccc1F)(Cc1ccncc1F)Cn1cncn1 (centres unmarked) [Example I-20]		
	Clc1cncc(Cl)c1CC1(C2(Cl)CC2)CO1 (centres unmarked) [XII-32]	3.68^[a]	
	O=C(Cc1cccnc1Cl)C1(c2ccccc2)CC1 [Example V-10]	3.00^[a]	
	Fc1cc(CC2(C3(F)CC3)CO2)c(Cl)cn1 (centres unmarked) [XII-21]	2.80^[a]	
	CC(CF)(CF)C1(Cc2ccnc(Cl)c2F)CO1 (centres unmarked) [XII-27]	2.65^[a]	
	CC(CF)(CF)C1(Cc2cc(F)ncc2Cl)CO1 (centres unmarked) [XII-22]	2.84^[a]	
1.23^[a]	OC(Cc1ccnc(Cl)c1F)(Cn1cncn1)c1ccc(Cl)nc1 (racemic) [Example I-86]		Eff. % (Septoria tritici; 500 ppm of active ingredient): 72%
	CC1(C(=O)Cc2ccncc2Cl)CC1 [Example V-11]	1.85^[a]	
1.38^[a]	OC(Cc1ccnc(Cl)c1)(Cn1cncn1)c1ccc(Cl)nc1 (centres unmarked) [Example I-38]		Eff. % (Sphaerotheca fuliginea; 100 ppm of active ingredient): 100%
2.88^[a]	OC(Cc1ncc(Cl)cc1Cl)(Cn1cncn1)C1(Cl)CC1 (centres unmarked) [Example I-97]		
	Cc1cccc2cc(CC3(C4(Cl)CC4)CO3)c(Cl)nc12 (centres unmarked) [XII-39]	4.90^[a]	
1.57^[a]	OC(Cc1cc(Cl)ncc1F)(Cn1cncn1)c1cccnc1Cl (centres unmarked) [Example I-43]		Eff. % (Sphaerotheca fuliginea; 100 ppm of active ingredient): 100%
	CC1(C(=O)Cc2cccnc2Cl)CC1 [Example V-9]	1.96^[a]	
2.69^[a]	OC(Cc1cccc(Cl)c1)(Cc1cc(Cl)ncc1F)Cn1cncn1 (racemic) [Example I-74]		Eff. % (Septoria tritici; 500 ppm of active ingredient): 100%; Eff. % (Sphaerotheca fuliginea; 500 ppm of active ingredient): 100%
	O=C(Cc1ccc(Cl)nc1Cl)C1(Cl)CC1 [Example V-17]	3.19^[a]	
	ClC1(C2(Cc3ccc4ccccc4n3)CO2)CC1 (centres unmarked) [XII-1]	1.74^[a]	
	O=C(Cc1ccncc1Cl)C1(Cl)CC1 [Example V-4]	2.13^[a]	
	CC(CF)(CF)C1(Cc2ccncc2Cl)CO1 (centres unmarked) [XII-18]	2.16^[a]	
	CC(C)(F)C(=O)Cc1ccncc1Cl [Example V-8]	1.97^[a]	

LogP (pH 2.7)	Compound	LogP [1]	also measured
0.84^[a]	Cc1cc(C(O)(Cc2ccncc2Cl)Cn2cncn2)nn1C (racemic) [Example I-66]		Eff. % (Septoria tritici; 500 ppm of active ingredient): 92%; Eff. % (Sphaerotheca fuliginea; 500 ppm of active ingredient): 80%
	Fc1cnc(Cl)cc1CC1(C2(F)CC2)CO1 (centres unmarked) [XII-13]	2.57^[a]	
1.72^[a]	OC(Cc1cncc(Cl)n1)(Cn1cncn1)C1(Cl)CC1 (centres unmarked) [Example I-9]		Eff. % (Sphaerotheca fuliginea; 100 ppm of active ingredient): 94%
0.52^[a]	Cc1ccnc(CC(O)(Cn2cncn2)C2(Cl)CC2)c1 (centres unmarked) [Example I-52]		
	Clc1cnc(Cl)c(CC2(C3(Cl)CC3)CO2)c1 (centres unmarked) [XII-41]	3.87^[a]	
	ClC1(C2(Cc3ccncn3)CO2)CC1 (centres unmarked) [XII-25]	1.44^[a]	
	Clc1cc(CC2(C3(Cl)CC3)CO2)c(Cl)cn1 (centres unmarked) [XII-42]	3.70^[a]	
2.54^[a]	OC(Cc1cc(Cl)nc(Cl)c1)(Cn1cncn1)C1(Cl)CC1 (centres unmarked) [Example I-26]		Eff. % (Septoria tritici; 100 ppm of active ingredient): 97%; Eff. % (Sphaerotheca fuliginea; 100 ppm of active ingredient): 100%
2.05^[a]	Cc1cnc(CC(O)(Cn2cncn2)C2(Cl)CC2)c(Cl)n1 (centres unmarked) [Example I-10]		Eff. % (Sphaerotheca fuliginea; 100 ppm of active ingredient): 75%
	Fc1cnc(Cl)cc1CC1(C2(Cl)CC2)CO1 (centres unmarked) [XII-14]	3.15^[a]	
	FC1(C2(Cc3cccnc3Cl)CO2)CC1 (centres unmarked) [XII-23]	2.18^[a]	
2.34^[a]	OC(Cc1ccccc1F)(Cc1cc(Cl)ncc1F)Cn1cncn1 (racemic) [Example I-73]		Eff. % (Septoria tritici; 500 ppm of active ingredient): 100%; Eff. % (Sphaerotheca fuliginea; 500 ppm of active ingredient): 100%
	FC(F)(F)c1cnccc1CC1(C2(Cl)CC2)CO1 (centres unmarked) [XII-38]	3.04^[a]	
1.96^[a]	OC(Cc1ccccc1F)(Cc1ccncc1Cl)Cn1cncn1 (centres unmarked) [Example I-12]		Eff. % (Septoria tritici; 100 ppm of active ingredient): 88%; Eff. % (Sphaerotheca fuliginea; 100 ppm of active ingredient): 100%
	O=C(Cc1cccnc1)C1(Cl)CC1 [Example V-19]	0.23^[a]	
2.23^[a]	OC(Cc1ccncc1Cl)(Cn1cncn1)C1(c2ccccc2)CC1 (racemic) [Example I-78]		
	Fc1c(CC2(C3(Cl)CC3)CO2)ccnc1Cl (centres unmarked) [XII-26]	3.11^[a]	
	O=C(Cc1cccnc1F)C1(Cl)CC1 [Example V-16]	2.07^[a]	
	Fc1cc(CC2(C3(Cl)CC3)CO2)c(Cl)cn1 (centres unmarked) [XII-20]	3.41^[a]	
	Fc1c(CC2(C3(F)CC3)CO2)ccnc1Cl (centres unmarked) [XII-28]	2.53^[a]	
1.35^[a]	OC(Cc1ccnc(Cl)c1)(Cn1cncn1)c1cccnc1Cl (centres unmarked) [Example I-34]		Eff. % (Sphaerotheca fuliginea; 100 ppm of active ingredient): 100%
